We go through twelve compounds from patent US20070105931A1, “Methods and compositions for inhibiting the proliferation of prostate cancer cells” (Mayo Foundation for Medical Education and Research, priority 2003, published 2007).

The test system of assay [1] is LAPC-4 cells. Description: Growth response (MTS cell proliferation assay), LAPC-4. Type of assay: cell-based, human. The note with it: MTS assay 6 days after treatment. Here is the method: (§1) Human prostate cancer cell lines LNCaP (American Type Culture Collection, Manassas, Va.) and LAPC-4 (kindly provided by Dr. Charles L. Sawyers; Zhu et al., 1999, Endocrinology, 140:5451-4) were maintained in RPMI 1640 (Mediatech, Hercules, Calif.) containing 5% FBS (Biofluids, Rockville, Md.) at 37° C. and 5% CO2. To avoid potential interference of existing steroids in FBS, the media were first replaced by serum-free RPMI 1640 for 24 h. Cells were then cultured in RPMI 1640 with 5% charcoalstripped FBS supplemented with or without 1 nM Mib (New England Nuclear, Boston, Mass.), a nomnetabolizable, synthetic androgen.
(§2) Cells were plated in 24-well plates at 2×10^4 cells/well. […] MTS assay (Promega, Madison, Wis.) was performed to determine cell proliferation 6 days after the treatment. To measure secreted PSA and hK2 levels, 400 μl of spent medium from cells treated for 6 days were collected. PSA and hK2 proteins levels were determined using specific immunoassays (Mayo Immunochemical Core Facility). These measurements were used to the calculate 50% inhibitory concentration (IC50) of each of the NSAIDs.

Assay [2] relates to PSA. Description: Secreted PSA protein level (immunoassay), LNCaP. Type of assay: cell-based, human. The note with it: for IC50: LNCaP cells, secreted PSA in spent medium, treated 6 days. Here is the method: (§3) FIG. 1 is a graph showing the effects of NSAIDs on the expression of PSA and hK2 proteins in prostate cancer cells ±1 nM Mib. […] PSA and hK2 values were normalized to growth response measured by a 3-(4,5-dimethylthiazol-2-yl)-2,5-diphenyltetrazolium bromide assay and expressed as a percentage of that group treated with Mib only. Error bars indicate the SE of four separate experiments.
as §1, §2

The test system of assay [3] is PSA. Description: Secreted PSA protein level (immunoassay), LAPC-4. The assay is classed as cell-based, human. The note with it: LAPC-4 cells, secreted PSA in spent medium, treated 6 days. Here is the method:
as §3, §1, §2

Assay [4] has as its system hK2. Description: Secreted hK2 protein level (immunoassay), LNCaP. Type of assay: cell-based, human. The note with it: for IC50: LNCaP cells, secreted hK2 in spent medium, treated 6 days. Here is the method:
as §3, §1, §2

The test system of assay [5] is LNCaP cells. Description: Growth response (MTS cell proliferation assay), LNCaP. The note with it: MTS assay 6 days after treatment. The assay is classed as cell-based, human. The procedure: as §1, §2
Assay [6] relates to hK2. Description: Secreted hK2 protein level (immunoassay), LAPC-4. Type of assay: cell-based, human. The note with it: LAPC-4 cells, secreted hK2 in spent medium, treated 6 days. The procedure:
as §3, §1, §2

The subject of assay [7] is STAT3. Description: Western blot of STAT3 and phosphorylated STAT3 in IL6-treated LNCaP cells. The assay is classed as cell-based, human. Here is the method:
Experiments were then performed to determine if STAT3 is phosphorylated following exposure to IL6.
The same cells were treated with 50 μM of a potent phosphatase inhibitor, peroxovanadate (POV), to determine if the nimesulide-mediated inhibition of phosphorylation of STAT3 by IL6 was due to activation of one or more phosphatases. […] Therefore, the inhibitory effect of nimesulide on phosphorylation of STAT3 by IL6 may be caused by activation of one or more phosphatases, because the inhibitor could partially reverse the reduced phosphorylation of STAT3 by nimesulide. It was noted that POV alone had no effect on phosphorylation of STAT3 in the absence of IL6.

The test system of assay [8] is AR promoter (−1380/+577). Description: AR promoter-luciferase reporter assay in LNCaP cells. The note with it: 1 nM Mib, 24 h, FIG. 3A.
The test system of assay [9] is FKBP51. Description: Western blot of androgen-up-regulated FKBP51 protein. The assay is classed as cell-based, human. The note with it: 1 nM Mib. Here is the method: (§4) Cells were seeded at 1×10^5 cells/plate in 100 mm dishes. […] The cells were collected by centrifugation and washed with nimesulide for 15 or 24 h. The cells were collected by centrifugation and washed with cold PBS. Cell lysates were prepared in radioimmunoprecipitation assay buffer (PBS containing 1% NP40, 0.5% sodium deoxycholate, 0.1% SDS plus freshly added protease inhibitors, 100 μg/ml phenylmethylsulfonyl fluoride, 30 μl/ml aprotinin, and 1 mM sodium orthovanadate) and used for Western blot analysis. The sample filters were immunoblotted with c-Jun, phospho-c-Jun (Cell Signaling, Beverly, Mass.), AR (PharMingen, San Diego, Calif.), and FKBP51 (a gift from Dr. D. O. Toft; Mayo Clinic) specific primary antibodies and horseradish peroxidase-conjugated secondary antibodies and visualized by enhanced chemiluminescence (Amersham Pharmacia, Piscataway, N.J.).

In assay [10] the test system is AR/ARE (hK2 3xARE-SV40 minimal promoter). Description: hK2 3xARE luciferase reporter assay in LNCaP cells. The note with it: P<0.05, 24 h.
Assay [11] has as its system c-Jun. Description: Western blot of c-Jun protein in LNCaP cells. The assay is classed as cell-based, human. The note with it: 24 h of treatment. Here is the method:
as §4

Assay [12] has as its system STAT3. Description: STAT3 responsive element luciferase reporter in LNCaP cells. The note with it: celecoxib 50 μM, nimesulide 100 μM, IL6 25-50 ng/ml, six hours.
Assay [13] concerns androgen receptor. Description: IL6-activated hK2 ARE-SV40-pGL3 reporter, transient transfection. Type of assay: cell-based, human. The note with it: celecoxib 50 μM, nimesulide 100 μM; IL6 50 ng/ml; androgen 1 nM. The procedure:
Experiments were performed to determine whether or not IL6 increased expression of PSA and/or hK2.

Assay [14] deals with 6-kb PSA promoter. Description: PSA promoter-luciferase reporter assay in LNCaP cells. The note with it: concentration as low as 25 μM, 1 nM Mib, 24 h.
Assay [15] concerns AR. Description: Western blot of AR protein expression. Type of assay: cell-based, human. The note with it: concentrations used in the transfections. The procedure:
as §4

The mark [16] stands for this setting: FIG. 1, dose-dependent, LNCaP and LAPC-4 cells, 1 nM Mib.

Consider `CC(=O)Oc1ccccc1C(=O)O` [Aspirin], for which the IC50 was greater than 1000 µM in assay [1] (Homo sapiens, LAPC4, 144 h); greater than 1000 µM in [2] (Homo sapiens, 144 h); greater than 1000 µM in assay [3] (Homo sapiens, LAPC4, 144 h); greater than 1000 µM in assay [4] (Homo sapiens, 144 h); greater than 1000 µM in [5] (Homo sapiens, 144 h); greater than 1000 µM in assay [6] (Homo sapiens, 144 h).

With `Cc1ccc(-c2cc(C(F)(F)F)nn2-c2ccc(S(N)(=O)=O)cc2)cc1` [Celecoxib], the IC50 in assay [1] (Homo sapiens, LAPC4, 144 h) came out at 44.5 µM; in [2] (Homo sapiens, 144 h), 20 µM; in [3] (Homo sapiens, LAPC4, 144 h), 28.7 µM; in assay [4] (Homo sapiens, 144 h), 29.6 µM; in assay [6] (Homo sapiens, 144 h) it was 43.7 µM.

Take `CC(C(=O)O)c1cccc(Oc2ccccc2)c1` (centres unmarked) [Fenoprofen]: the IC50 in [2] (Homo sapiens, 144 h) is 210 µM; in assay [4] (Homo sapiens, 144 h), 229 µM; in assay [5] (Homo sapiens, 144 h) it was greater than 300 µM.

On to `CC(C(=O)O)c1ccc(-c2ccccc2)c(F)c1` (centres unmarked) [Flurbiprofen], for which the concentration for half-maximal inhibition (IC50) in assay [1] (Homo sapiens, LAPC4, 144 h) was 347 µM; in [2] (Homo sapiens, 144 h) it was 206 µM; in assay [3] (Homo sapiens, LAPC4, 144 h), 234 µM; in assay [4] (Homo sapiens, 144 h) it was 281 µM; in assay [5] (Homo sapiens, 144 h), greater than 300 µM; in [6] (Homo sapiens, 144 h) it was 221 µM.

Turning to `CC(C)Cc1ccc(C(C)C(=O)O)cc1` (centres unmarked) [Ibuprofen], the IC50 was 740 µM in [1] (Homo sapiens, LAPC4, 144 h); 783 µM in [2] (Homo sapiens, 144 h); 870 µM in assay [3] (Homo sapiens, LAPC4, 144 h); 860 µM in assay [4] (Homo sapiens, 144 h); greater than 1000 µM in assay [5] (Homo sapiens, 144 h); 803 µM in [6] (Homo sapiens, 144 h).

Consider `COc1ccc2c(c1)c(CC(=O)O)c(C)n2C(=O)c1ccc(Cl)cc1` [Indomethacin], for which the IC50 was 170 µM in [1] (Homo sapiens, LAPC4, 144 h); 224 µM in [2] (Homo sapiens, 144 h); 203 µM in [3] (Homo sapiens, LAPC4, 144 h); 272 µM in assay [4] (Homo sapiens, 144 h); greater than 300 µM in assay [5] (Homo sapiens, 144 h); 207 µM in assay [6] (Homo sapiens, 144 h).

`CC(C(=O)O)c1cccc(C(=O)c2ccccc2)c1` (centres unmarked) [Ketoprofen]: the IC50 was greater than 300 µM in assay [1] (Homo sapiens, LAPC4, 144 h); greater than 300 µM in assay [2] (Homo sapiens, 144 h); greater than 300 µM in assay [3] (Homo sapiens, LAPC4, 144 h); greater than 300 µM in [4] (Homo sapiens, 144 h); greater than 300 µM in assay [5] (Homo sapiens, 144 h); greater than 300 µM in assay [6] (Homo sapiens, 144 h).

Regarding `Cc1cnc(NC(=O)C2=C(O)c3ccccc3S(=O)(=O)N2C)s1` [Meloxicam], the IC50 in assay [1] (Homo sapiens, LAPC4, 144 h) was 92 µM; in assay [2] (Homo sapiens, 144 h) it was 300 µM; in [3] (Homo sapiens, LAPC4, 144 h), greater than 300 µM; in assay [4] (Homo sapiens, 144 h), 377 µM; in assay [5] (Homo sapiens, 144 h) it was 193 µM; in assay [6] (Homo sapiens, 144 h), greater than 300 µM.

As to `CS(=O)(=O)Nc1ccc([N+](=O)[O-])cc1Oc1ccccc1` [Nimesulide], the “phosphorylation of STAT3 by IL6” value in assay [7] (celecoxib 50 μM, nimesulide 100 μM, IL6 25-50 ng/ml) is given as “significantly suppressed”. Also, in assay [8], the “transcription activities of the AR promoter (−1380/+577)” value was “repressed”. In assay [9], the “androgen-up-regulated FKBP51 protein expression” value is reported as “alleviated”. Further, the IC50 turned out to be 104 µM in assay [1] (Homo sapiens, LAPC4, 144 h); 27 µM in assay [2] (Homo sapiens, 144 h); 76.5 µM in assay [3] (Homo sapiens, LAPC4, 144 h); 23 µM in assay [4] (Homo sapiens, 144 h); 38.2 µM in [5] (Homo sapiens, 144 h); 61 µM in assay [6] (Homo sapiens, 144 h). Further, in [10], the “AR/ARE-mediated gene expression (hK2 3xARE reporter)” value was “significantly reduced”. In addition, the “expression of PSA” value in [2] (setting [16]) is recorded as “suppressed”. Also, the c-Jun protein result in assay [11] was “strongly induced”. In addition, in [12], the “STAT3-specific responsive element-mediated luciferase expression activated by IL6” value is “inhibited”. In [13], the “androgen receptor-mediated expression of the reporter gene activated by IL6 or IL6 plus androgen” value is “inhibit”. In addition, the “androgen-induced PSA promoter activity” value in assay [14] is reported as “significantly reduced”. In addition, the “expression of hK2” value in assay [4] (setting [16]) is “suppressed”. Further, the AR protein expression result in [15] is recorded as “reduced”.

Take `CC1=C(CC(=O)O)c2cc(F)ccc2/C1=C\c1ccc(S(C)(=O)=O)cc1` [Sulindac sulfone]: the IC50 in [1] is 253 µM; in assay [2] it was 206 µM; in [3], 194 µM; in assay [4], 97.6 µM; in [5] it was greater than 300 µM; in assay [6], greater than 300 µM.

Regarding `CC1=C(CC(=O)O)c2cc(F)ccc2/C1=C\c1ccc([S+](C)[O-])cc1` (centres unmarked) [Sulindac], the IC50 was greater than 300 µM in [1] (Homo sapiens, LAPC4, 144 h); greater than 300 µM in assay [2] (Homo sapiens, 144 h); greater than 300 µM in assay [3] (Homo sapiens, LAPC4, 144 h); greater than 300 µM in assay [4] (Homo sapiens, 144 h); greater than 300 µM in [5] (Homo sapiens, 144 h); greater than 300 µM in assay [6] (Homo sapiens, 144 h).

Turning to peroxovanadate [POV], the “phosphorylation of STAT3 in the absence of IL6” value in assay [7] (50 μM POV alone) was “no effect”.
